Experimental data as given in patent publication US8754079B2, “Cycloalkyl containing thienopyrimidines for pharmaceutical compositions” (Boehringer Ingelheim International GmbH, priority 2010, dated 2014).
pIC50: −log10 of the molar value. Structures can show the parent of a compound that is named as a salt.

The molecules below were run against T1, MNK2 (Homo sapiens, UniProt Q9HBH9) (assay: Mnk2a in vitro kinase assay (indirect fluorescence polarization)). Conditions: pre-activated GST-Mnk2a 2.5 nM, 20 μM ATP, 30 μM substrate peptide.
T1 construct: the open reading frames of human Mnk1 and Mnk2a were amplified from cDNA; made in house; host or cells: E. coli BL21
T1 sequence (Q9HBH9 whole entry): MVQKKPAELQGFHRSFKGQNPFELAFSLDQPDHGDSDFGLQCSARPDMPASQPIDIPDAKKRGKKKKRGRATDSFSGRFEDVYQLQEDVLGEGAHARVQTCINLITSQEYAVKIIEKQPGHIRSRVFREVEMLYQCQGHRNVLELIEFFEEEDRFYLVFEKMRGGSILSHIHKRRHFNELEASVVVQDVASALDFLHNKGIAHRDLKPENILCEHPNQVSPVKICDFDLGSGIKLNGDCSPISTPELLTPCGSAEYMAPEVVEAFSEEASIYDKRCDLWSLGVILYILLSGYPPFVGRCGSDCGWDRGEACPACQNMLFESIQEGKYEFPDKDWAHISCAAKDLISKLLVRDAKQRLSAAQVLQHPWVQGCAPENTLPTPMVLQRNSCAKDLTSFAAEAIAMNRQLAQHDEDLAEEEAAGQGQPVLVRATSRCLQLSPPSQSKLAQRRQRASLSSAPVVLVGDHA
Assay type: biochemical
Method in brief: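 Human GST-Mnk2a was expressed in E. coli and activated in vitro with 150 nM pre-activated ERK2 and 50 μM ATP in HEPES pH 7.4/MgCl2 buffer (45 min, 30 °C). Activity on an eIF4E Ser209-derived 12mer peptide was read by competitive fluorescence polarization with a phospho-specific antibody.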

SMILES | pIC50
CO[C@H]1CC[C@H](Oc2cc(F)ccc2Nc2ncnc3sc(C(=O)NCCCN4CCC(O)C4)c(C)c23)CC1 (stereo partly drawn) [Example 201, 4-[4-Fluoro-2-(trans-4-methoxy-cyclohexyloxy)-phenylamino]-5-methyl-thieno[2,3-d]pyrimidine-6-carboxylic acid [3-(3-hydroxy-pyrrolidin-1-yl)-propyl]-amide] | 7.80
CO[C@H]1CC[C@@H](Oc2cc(F)ccc2Nc2ncnc3sc(C(=O)NCCCN(C)C)c(C)c23)CC1 [Example 202, 4-[4-Fluoro-2-(cis-4-methoxy-cyclohexyloxy)-phenylamino]-5-methyl-thieno[2,3-d]pyrimidine-6-carboxylic acid (3-dimethylamino-propyl)-amide] | 7.34
COCCNC(=O)c1sc2ncnc(Nc3ccc(F)cc3O[C@H]3CC[C@@H](OC)CC3)c2c1C [Example 203] | 7.21
Cc1c(C(N)=O)sc2ncnc(Nc3cccnc3O[C@H]3CC[C@H](O)CC3)c12 [Example 204, 4-[2-(trans-4-Hydroxy-cyclohexyloxy)-pyridin-3-ylamino]-5-methyl-thieno[2,3-d]pyrimidine-6-carboxylic acid amide] | 8.30
Cc1c(C(N)=O)sc2ncnc(Nc3cccnc3O[C@H]3CC[C@@H](O)CC3)c12 [Example 205, 4-[2-(cis-4-Hydroxy-cyclohexyloxy)-pyridin-3-ylamino]-5-methyl-thieno[2,3-d]pyrimidine-6-carboxylic acid amide] | 8.00
Cc1c(C(=O)NCCCN(C)C)sc2ncnc(Nc3cccnc3O[C@H]3CC[C@H](O)CC3)c12 [Example 206, 4-[2-(trans-4-Hydroxy-cyclohexyloxy)-pyridin-3-ylamino]-5-methyl-thieno[2,3-d]pyrimidine-6-carboxylic acid (3-dimethylamino-propyl)-amide] | 7.89
CO[C@H]1CC[C@H](Oc2ncccc2Nc2ncnc3sc(C(N)=O)c(C)c23)CC1 [Example 207, 4-[2-(trans-4-Methoxy-cyclohexyloxy)-pyridin-3-ylamino]-5-methyl-thieno[2,3-d]pyrimidine-6-carboxylic acid amide] | 8.05
CNC(=O)c1sc2ncnc(Nc3cccnc3O[C@H]3CC[C@H](OC)CC3)c2c1C [Example 208] | 7.85
Cc1c(C(N)=O)sc2ncnc(Nc3ccc(F)cc3O[C@@H]3C[C@@H](O)[C@@H](O)C3)c12 [Example 212] | 8.10
Cc1c(C(N)=O)sc2ncnc(Nc3ccc(F)cc3O[C@H]3C[C@@H]4OC(C)(C)O[C@@H]4C3)c12 [Example 213] | 7.13
Cc1c(C(N)=O)sc2ncnc(Nc3ccc(F)cc3O[C@H]3C[C@@H]4OCO[C@@H]4C3)c12 [Example 214] | 8.05
CO[C@H]1C[C@@H](Oc2cc(F)ccc2Nc2ncnc3sc(C(N)=O)c(C)c23)C[C@H]1OC [Example 216] | 7.28
Cc1c(C(N)=O)sc2ncnc(Nc3ccc(F)cc3O[C@@H]3C[C@@H]4OCO[C@@H]4C3)c12 [Example 218] | 7.42
Cc1c(C(N)=O)sc2ncnc(Nc3ccc(F)cc3O[C@@H]3C[C@@H]4OC(C)(C)O[C@@H]4C3)c12 [Example 220] | 6.41
Cc1c(C(N)=O)sc2ncnc(Nc3ccc(F)cc3OC3CCC(O)C3)c12 (centres unmarked) [Example 225, 4-(4-fluoro-2-(3-hydroxycyclopentyloxy)phenylamino)-5-methylthieno[2,3-d]pyrimidine-6-carboxamide] | 8.22
Cc1c(C(=O)NCCCN(C)C)sc2ncnc(Nc3ccc(F)cc3OC3CCC(O)C3)c12 (centres unmarked) [Example 226, N-(3-(dimethylamino)propyl)-4-(4-fluoro-2-(3-hydroxycyclopentyloxy)phenylamino)-5-methylthieno[2,3-d]pyrimidine-6-carboxamide] | 8.00
Cc1c(C(=O)NCCO)sc2ncnc(Nc3ccc(F)cc3OC3CCC(O)C3)c12 (centres unmarked) [Example 227, 4-(4-Fluoro-2-(3-hydroxycyclopentyloxy)phenylamino)-N-(2-hydroxyethyl)-5-methylthieno[2,3-d]pyrimidine-6-carboxamide] | 7.92
Cc1c(C(N)=O)sc2ncnc(Nc3ccc(F)cc3O[C@H]3CC[C@H](NC(=O)OC(C)(C)C)C3)c12 [Example 228, {(1S,3S)-3-[2-(6-Carbamoyl-5-methyl-thieno[2,3-d]pyrimidin-4-ylamino)-5-fluoro-phenoxy]-cyclopentyl}-carbamic acid tert-butyl ester] | 5.94
Cc1c(C(N)=O)sc2ncnc(Nc3ccc(F)cc3O[C@H]3CC[C@H](N)C3)c12 [Example 229, 4-[2-((1S,3S)-3-Amino-cyclopentyloxy)-4-fluoro-phenylamino]-5-methyl-thieno[2,3-d]pyrimidine-6-carboxylic acid amide trifluoroacetate] | 8.15
CC(=O)N[C@H]1CC[C@H](Oc2cc(F)ccc2Nc2ncnc3sc(C(N)=O)c(C)c23)C1 [Example 230, 4-[2-((1S,3S)-3-Acetylamino-cyclopentyloxy)-4-fluoro-phenylamino]-5-methyl-thieno[2,3-d]pyrimidine-6-carboxylic acid amide] | 8.40
CC(=O)N[C@H]1CC[C@H](Oc2cc(F)ccc2Nc2ncnc3sc(C(=O)NCCO)c(C)c23)C1 [Example 231, 4-[2-((1S,3S)-3-Acetylamino-cyclopentyloxy)-4-fluoro-phenylamino]-5-methyl-thieno[2,3-d]pyrimidine-6-carboxylic acid (2-hydroxy-ethyl)-amide] | 7.85

SMILES | pIC50
CC(=O)N[C@H]1CC[C@H](Oc2cc(F)ccc2Nc2ncnc3sc(C(=O)N[C@@H]4C[C@H]4NC(=O)OC(C)(C)C)c(C)c23)C1 [Example 232] | 8.22
CC(=O)N[C@H]1CC[C@H](Oc2cc(F)ccc2Nc2ncnc3sc(C(=O)NCC#CCN(C)C)c(C)c23)C1 [Example 233] | 7.72
CC(=O)N[C@H]1CC[C@H](Oc2cc(F)ccc2Nc2ncnc3sc(C(=O)NC4CCN(C)CC4)c(C)c23)C1 [Example 234] | 7.49
CNC(=O)c1sc2ncnc(Nc3ccc(F)cc3O[C@H]3CC[C@H](NC(C)=O)C3)c2c1C [Example 235] | 8.22
CONC(=O)c1sc2ncnc(Nc3ccc(F)cc3O[C@H]3CC[C@H](NC(C)=O)C3)c2c1C [Example 236] | 7.80
CC(=O)N[C@H]1CC[C@H](Oc2cc(F)ccc2Nc2ncnc3sc(C(=O)NCCCN(C)C)c(C)c23)C1 [Example 237] | 7.60
CC(=O)N[C@H]1CC[C@H](Oc2cc(F)ccc2Nc2ncnc3sc(C(=O)N[C@@H]4C[C@H]4N)c(C)c23)C1 [Example 238] | 7.51
CC(=O)N[C@H]1CC[C@H](Oc2cc(F)ccc2Nc2ncnc3sc(C(=O)NCCCN4CCCC4)c(C)c23)C1 [Example 239] | 7.82
CC(=O)N(C)[C@H]1CC[C@H](Oc2cc(F)ccc2Nc2ncnc3sc(C(N)=O)c(C)c23)C1 [Example 240, 4-{2-[(1S,3S)-3-(Acetyl-methyl-amino)-cyclopentyloxy]-4-fluoro-phenylamino}-5-methyl-thieno[2,3-d]pyrimidine-6-carboxylic acid amide] | 7.89
CC(=O)N[C@H]1C[C@H](Oc2cc(F)ccc2Nc2ncnc3sc(C(=O)NCC#N)c(C)c23)C1 [Example 241, 4-[2-(trans-3-Acetylamino-cyclobutoxy)-4-fluoro-phenylamino]-5-methyl-thieno[2,3-d]pyrimidine-6-carboxylic acid cyanomethyl-amide] | 7.31
Cc1c(C(N)=O)sc2ncnc(Nc3ccc(F)cc3OC3CCC3)c12 [Example 243, 4-(2-Cyclobutoxy-4-fluoro-phenylamino)-5-methyl-thieno[2,3-d]pyrimidine-6-carboxylic acid amide] | 8.05
Cc1c(C(N)=O)sc2ncnc(Nc3ccc(F)cc3OC3CCCC3)c12 [Example 244, 4-(2-Cyclopentoxy-4-fluoro-phenylamino)-5-methyl-thieno[2,3-d]pyrimidine-6-carboxylic acid amide] | 8.70
CC(=O)N[C@H]1C[C@H](Oc2cc(F)ccc2Nc2ncnc3sc(C(=O)NCC#CCN(C)C)c(C)c23)C1 [Example 245, 4-[2-(trans-3-Acetylamino-cyclobutoxy)-4-fluoro-phenylamino]-5-methyl-thieno[2,3-d]pyrimidine-6-carboxylic acid (4-dimethylamino-but-2-ynyl)-amide] | 7.41
CC(=O)N[C@H]1C[C@H](Oc2cc(F)ccc2Nc2ncnc3sc(C(=O)N[C@H]4C[C@@H]4N)c(C)c23)C1 [Example 246, 4-[2-(trans-3-Acetylamino-cyclobutoxy)-4-fluoro-phenylamino]-5-methyl-thieno[2,3-d]pyrimidine-6-carboxylic acid (2-amino-cyclopropyl)-amide] | 7.19
COC(=O)c1sc2ncnc(Nc3ccc(F)cc3O[C@@H]3CCCC[C@H]3OC)c2c1C [Example 247, 4-[4-Fluoro-2-((1R,2R)-2-methoxy-cyclohexyloxy)-phenylamino]-5-methyl-thieno[2,3-d]pyrimidine-6-carboxylic acid methyl ester] | 6.86
CO[C@@H]1CCCC[C@H]1Oc1cc(F)ccc1Nc1ncnc2sc(C(=O)O)c(C)c12 [Example 248, 4-[4-Fluoro-2-((1R,2R)-2-methoxy-cyclohexyloxy)-phenylamino]-5-methyl-thieno[2,3-d]pyrimidine-6-carboxylic acid] | 8.00
CO[C@@H]1CCCC[C@H]1Oc1cc(F)ccc1Nc1ncnc2sc(C(N)=O)c(C)c12 [Example 249, 4-[4-Fluoro-2-((1R,2R)-2-methoxy-cyclohexyloxy)-phenylamino]-5-methyl-thieno[2,3-d]pyrimidine-6-carboxylic acid amide] | 8.22
COC1CCCCC1Oc1cc(F)ccc1Nc1ncnc2sc(C(=O)NC3CCCC3O)c(C)c12 (centres unmarked) [Example 250] | 7.72
CO[C@@H]1CCCC[C@H]1Oc1cc(F)ccc1Nc1ncnc2sc(C(=O)N[C@@H]3CCC[C@H]3O)c(C)c12 [Example 251] | 7.70
CO[C@@H]1CCCC[C@H]1Oc1cc(F)ccc1Nc1ncnc2sc(C(=O)NCCSC)c(C)c12 [Example 252] | 7.74
